Laboratory results: patent US9561228B2 (Celgene Avilomics Research, Inc., priority 2013, dated 2017)
pEC50, pIC50: −log10 of the molar value. Values belong to the molecule of their own block, whether it stands above or below them.

Key:
[1] = molecular target: T1, Erk1 (Homo sapiens, UniProt P27361); assay: Protein Mass Modification Assay (intact protein MALDI, 60 min, 10-fold excess of compound); format: binding
T1 construct: purchased Millipore 14-439
Description: Protein Mass Modification Assay
Intact protein: Erk1 from Millipore (Cat. No. 14-439) was incubated for 60 min. at room temperature with a 10-fold excess of test compound to protein. 4 μL aliquots of the resulting mixture were diluted with 15 μL of 0.2% TFA prior to micro C4 ZipTipping directly onto the MALDI target using sinapinic acid as the desorption matrix (10 mg/ml in 0.1% TFA:Acetonitrile 50:50, v/v). The centroid mass of the target protein in the control sample was compared with the centroid mass of the target protein incubated with compound. A shift in the centroid mass of the treated protein compared to the untreated protein was divided by the molecular weight of the compound. This number corresponds to the percentage of modified protein after one hour incubation. Results from this assay are reported in Table A under the column “ERK1 Mass Mod (%).”

[2] = test system: ERK1/2 phosphorylation of p90RSK in HT29 cells; assay: pRSK MSD Assay in HT29 cells; format: cell-based; conditions: Homo sapiens, HT-29, read-out: ERK1/ERK2 PRSK MSD HT29 EC50
Summary of the method: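 Phospho-RSK level, read by electrochemiluminescence on RSK-antibody-coated MSD plates with a phospho-RSK/Sulfo-tag detection pair, reports cellular ERK1/2 activity. HT29 cells, kept overnight in 0.1% FBS medium, were exposed to compound for 120 min at 37° C before lysis.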

[3] = molecular target: T2, MEK1 activated ERK1 (Homo sapiens, UniProt P27361); assay: Omnia continuous-read kinase assay for potency against MEK1 activated ERK1; format: biochemical; conditions: MEK1 activated ERK1, ATP at KM; read-out: ERK1 Omnia WT ATP KM IC50
T2 construct: purchased Millipore (Billerica, Mass.) 14-439-K
Summary of the method: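 Apparent IC50 came from initial reaction slopes (RFU vs time) plotted against log inhibitor with a variable-slope fit. Reactions were started with ERK1 (4 nM final) added to 50 μM ATP, roughly at its appKM, and 10 μM Sox-conjugated ST17 peptide in 20 mM Tris pH 7.5, 5 mM MgCl2. Fluorescence was monitored every 71 seconds.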

[4] = test system: A375 cells (malignant melanoma); assay: Inhibition of cancer cell proliferation, A375 (CellTiterGlo, 72 hours); format: cell-based; conditions: Homo sapiens, A-375
Description: Measurement of Inhibition of Cancer Cell Proliferation (A375/Malignant Melanoma)
The following protocol used an A375 cell line, which cell line is a model for malignant melanoma. A375 cells were split and 3000 cells in […] of growth medium were added per well of a flat-bottom 96-well plate. A two-fold test compound solution in serum-free DMEM was made, starting at 5,000 nM. Then, 3-fold serial dilutions were made across the plate from well 1 to well 11. Well 12, the last well in a row on the plate, was left as untreated control. 100 μl compound solutions were then transferred to the wells, so the total volume of media was 200 μl per well. Plates were returned to a 37° C. incubator, and the cells were cultured for 72 hours. To measure cell proliferation after 72 hours, media was discarded from the plates, 50 μl/well of fresh medium was added, and 50 μl CellTiterGlo solution was added (Promega Cat#G7573). The plate was covered with a dark lid and incubated for 10 min. A white sealing tape was applied to the bottom of the plate, and the plate was read in a luminescence plate reader. […] 50 μl CellTiterGlo was added per well, and the plate was read in a luminescence plate reader after 10 min. The reading was plotted vs. cell number to generate a standard curve and the equation of the curve fit. The compound-treated sample luminescence readings were converted to cell numbers using the curve-fit equation. The percent of inhibition, using untreated control as 100% growth, was then calculated. GI50 was then calculated by GraphPad Prism.

[5] = test system: HT-29 cells (colorectal adenocarcinoma); assay: Inhibition of cancer cell proliferation, HT-29 (CellTiterGlo, 72 hours); format: cell-based; conditions: Homo sapiens
Summary of the method: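 Proliferation over 72 h at 37° C was read by CellTiterGlo luminescence, translated to cell counts with a cell-density standard curve (390–50,000 cells). Compound added as 3-fold dilutions from a 5,000 nM two-fold stock to 3000 seeded HT-29 cells; GI50 from percent inhibition relative to untreated wells.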

T1 sequence (P27361 whole entry): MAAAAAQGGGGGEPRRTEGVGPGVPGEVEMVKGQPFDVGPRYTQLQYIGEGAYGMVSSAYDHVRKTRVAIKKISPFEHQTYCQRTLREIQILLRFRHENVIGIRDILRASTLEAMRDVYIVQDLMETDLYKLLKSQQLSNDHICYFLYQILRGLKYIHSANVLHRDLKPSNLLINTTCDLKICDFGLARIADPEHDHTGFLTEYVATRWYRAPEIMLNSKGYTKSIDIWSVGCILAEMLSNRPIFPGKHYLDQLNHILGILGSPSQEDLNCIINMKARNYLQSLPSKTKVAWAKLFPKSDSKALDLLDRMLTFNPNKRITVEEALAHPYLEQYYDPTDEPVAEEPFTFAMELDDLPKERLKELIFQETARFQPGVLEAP
T2 sequence (P27361 whole entry): as above

Structure (SMILES): C=CC(=O)N[C@H]1CCCC[C@@H]1Nc1nc(N[C@H]2CCCN(C(=O)CO)C2)ncc1C(F)(F)F (racemic) [Compound I-27, Rac-N-(2-((2-(((R)-1-(2-hydroxyacetyl)piperidin-3-yl)amino)-5-(trifluoromethyl)pyrimidin-4-yl)amino)-trans-cyclohexyl)acrylamide]
ERK1 Mass Mod (%) [1]: F (key: E: a mass modification of ≧70%; F: a mass modification of 31-69%; G: a mass modification ≦30%)
pEC50 [2]: 6.00 to 6.30

Structure (SMILES): C/C=C/C(=O)Nc1cc(F)ccc1Nc1nc(N[C@@H]2CCC[C@H](C(N)=O)C2)ncc1Cl (racemic) [Compound I-113, Rac-cis-(E)-3-((4-((2-(but-2-enamido)-4-fluorophenyl)amino)-5-chloropyrimidin-2-yl)amino)cyclohexanecarboxamide]
ERK1 Mass Mod (%) [1]: F (key: E: a mass modification of ≧70%; F: a mass modification of 31-69%; G: a mass modification ≦30%)
pEC50 [2]: < 6.00
pIC50 [3]: < 6.00

Structure (SMILES): C=CC(=O)Nc1ccccc1Nc1nc(N[C@@H]2CCC[C@H](C(=O)O)C2)ncc1Cl (racemic) [Compound I-133, Rac-3-((4-((2-acrylamidophenyl)amino)-5-chloropyrimidin-2-yl)amino)-cis-cyclohexanecarboxylic acid]
ERK1 Mass Mod (%) [1]: E (a mass modification of ≧70%)
pIC50 [3]: 6.30 to 7.00

Structure (SMILES): C=CC(=O)Nc1cc(F)ccc1Nc1nc(N[C@H]2CC[C@@H](F)CC2)ncc1C(F)(F)F [Compound I-8, N-(5-fluoro-2-((2-((cis-4-fluorocyclohexyl)amino)-5-(trifluoromethyl)pyrimidin-4-yl)amino)phenyl)acrylamide]
ERK1 Mass Mod (%) [1]: E (a mass modification of ≧70%)
pIC50 [3]: 6.30 to 7.00

Structure (SMILES): C=CC(=O)Nc1ccccc1Nc1nc(Nc2ccc(N3CCN(C(C)=O)CC3)cc2OC)ncc1C(F)(F)F [Compound I-66, N-(2-((2-((4-(4-Acetylpiperazin-1-yl)-2-methoxyphenyl)amino)-5-(trifluoromethyl)pyrimidin-4-yl)amino)phenyl)acrylamide]
ERK1 Mass Mod (%) [1]: E (key: E: a mass modification of ≧70%; F: a mass modification of 31-69%; G: a mass modification ≦30%)
pIC50 [3]: 6.00 to 6.30

Structure (SMILES): C=CC(=O)Nc1ccccc1Nc1nc(Nc2ccc(N3CCN(C(C)=O)CC3)cc2OC)ncc1Cl [Compound I-149, N-(2-((2-((4-(4-acetylpiperazin-1-yl)-2-methoxyphenyl)amino)-5-chloropyrimidin-4-yl)amino)phenyl)acrylamide]
ERK1 Mass Mod (%) [1]: E (key: E: a mass modification of ≧70%; F: a mass modification of 31-69%; G: a mass modification ≦30%)
pIC50 [3]: 6.30 to 7.00

Structure (SMILES): C=CC(=O)Nc1ccccc1Nc1nc(Nc2ccc(N(CCNC(=O)OC(C)(C)C)C(C)=O)cc2OC)ncc1Cl [Compound I-174, tert-butyl(2-(N-(4-((4-((2-acrylamidophenyl)amino)-5-chloropyrimidin-2-yl)amino)-3-methoxyphenyl)acetamido)ethyl)carbamate]
ERK1 Mass Mod (%) [1]: E (a mass modification of ≧70%)
pIC50 [3]: 6.00 to 6.30

Structure (SMILES): C=CC(=O)Nc1ccccc1Nc1nc(Nc2cc(C(=O)NOCCO)ccc2C#N)ncc1Cl [Compound I-202, 3-((4-((2-acrylamidophenyl)amino)-5-chloropyrimidin-2-yl)amino)-4-cyano-N-(2-hydroxyethoxyl)benzamide]
ERK1 Mass Mod (%) [1]: F (a mass modification of 31-69%)
pIC50 [3]: 6.30 to 7.00

Structure (SMILES): C=CC(=O)Nc1cc(OC)ccc1Oc1nc(Nc2ccc(N3CCC[C@@H]3CO)cc2OC)ncc1C(N)=O [Compound I-264, (R)-4-(2-acrylamido-4-methoxyphenoxy)-2-((4-(2-(hydroxymethyl)pyrrolidin-1-yl)-2-methoxyphenyl)amino)pyrimidine-5-carboxamide]
ERK1 Mass Mod (%) [1]: F (a mass modification of 31-69%)
pIC50 [3]: < 6.00

The remaining lines, values ahead:

GI50 [4]: < 100 nM
pEC50 [2]: 6.30 to 7.00
GI50 [5]: < 100 nM
pIC50 [3]: 6.30 to 7.00
Structure (SMILES): C=CC(=O)Nc1ccccc1Nc1nc(Nc2cc(C(=O)NCCO)c(F)cc2C)ncc1C(F)(F)F [Compound I-81, 5-((4-((2-Acrylamidophenyl)amino)-5-(trifluoromethyl)pyrimidin-2-yl)amino)-2-fluoro-N-(2-hydroxyethyl)-4-methylbenzamide]

ERK1 Mass Mod (%) [1]: E (a mass modification of ≧70%)
Structure (SMILES): C=CC(=O)Nc1ccccc1Nc1nc(N[C@H]2CC[C@H](F)CC2)ncc1C(F)(F)F [Compound I-111, N-(2-((2-(trans-(4-fluorocyclohexyl)amino)-5-(trifluoromethyl)pyrimidin-4-yl)amino)phenyl)acrylamide]

ERK1 Mass Mod (%) [1]: E (a mass modification of ≧70%)
pIC50 [3]: 6.30 to 7.00
Structure (SMILES): C=CC(=O)Nc1cc(OC)ccc1Nc1nc(Nc2ccc(N3CCC[C@H]3C(N)=O)cc2C#N)ncc1Cl [Compound I-178, (S)-1-(4-((4-((2-acrylamido-4-methoxyphenyl)amino)-5-chloropyrimidin-2-yl)amino)-3-cyanophenyl)pyrrolidine-2-carboxamide]

GI50 [4]: < 100 nM
pEC50 [2]: 6.30 to 7.00
GI50 [5]: < 100 nM
pIC50 [3]: 6.30 to 7.00
Structure (SMILES): C=CC(=O)Nc1ccccc1Nc1nc(Nc2cc(C(=O)NC)c(F)cc2C)ncc1Cl [Compound I-231, 5-((4-((2-acrylamidophenyl)amino)-5-chloropyrimidin-2-yl)amino)-2-fluoro-N,4-dimethylbenzamide]

GI50 [4]: 101 to 500 nM
pEC50 [2]: 6.30 to 7.00
GI50 [5]: < 100 nM
pIC50 [3]: 6.30 to 7.00
Structure (SMILES): C=CC(=O)Nc1ccccc1Nc1nc(Nc2cc(C(=O)NCCO)c(F)cc2C)ncc1Cl [Compound I-232, 5-((4-((2-acrylamidophenyl)amino)-5-chloropyrimidin-2-yl)amino)-2-fluoro-N-(2-hydroxyethyl)-4-methylbenzamide]

GI50 [4]: 101 to 500 nM
pEC50 [2]: 6.30 to 7.00
GI50 [5]: 101 to 500 nM
pIC50 [3]: 6.30 to 7.00
Structure (SMILES): C=CC(=O)Nc1cc(C)ccc1Nc1nc(Nc2cc(C(=O)NC)c(F)cc2C)ncc1Cl [Compound I-233, 5-((4-((2-acrylamido-4-methylphenyl)amino)-5-chloropyrimidin-2-yl)amino)-2-fluoro-N,4-dimethylbenzamide]

GI50 [4]: 101 to 500 nM
pEC50 [2]: 6.30 to 7.00
GI50 [5]: 101 to 500 nM
pIC50 [3]: 6.30 to 7.00
Structure (SMILES): C=CC(=O)Nc1cc(C)ccc1Nc1nc(Nc2cc(C(=O)NCCO)c(F)cc2C)ncc1Cl [Compound I-234, 5-((4-((2-acrylamido-4-methylphenyl)amino)-5-chloropyrimidin-2-yl)amino)-2-fluoro-N-(2-hydroxyethyl)-4-methylbenzamide]

GI50 [4]: < 100 nM
pEC50 [2]: > 7.00
GI50 [5]: < 100 nM
pIC50 [3]: 6.30 to 7.00
Structure (SMILES): C=CC(=O)Nc1cc(C)ccc1Nc1nc(Nc2ccnc(OC)c2)ncc1Cl [Compound I-235, N-(2-((5-chloro-2-((2-methoxypyridin-4-yl)amino)pyrimidin-4-yl)amino)-5-methylphenyl)acrylamide]

GI50 [4]: < 100 nM
pEC50 [2]: 6.30 to 7.00
GI50 [5]: 101 to 500 nM
pIC50 [3]: 6.30 to 7.00
Structure (SMILES): C=CC(=O)Nc1cc(C)ccc1Nc1nc(Nc2ccncc2C)ncc1Cl [Compound I-236, N-(2-((5-chloro-2-((3-methylpyridin-4-yl)amino)pyrimidin-4-yl)amino)-5-methylphenyl)acrylamide]

GI50 [4]: 101 to 500 nM
pEC50 [2]: < 6.00
GI50 [5]: 101 to 500 nM
pIC50 [3]: 6.30 to 7.00
Structure (SMILES): CC(=O)N1CCC[C@H](Nc2ncc(C(F)(F)F)c(N[C@H]3[C@@H](C(N)=O)[C@@H]4C=C[C@H]3C4)n2)C1 [Compound I-308, (1S,2S,3R,4R)-3-((2-(((S)-1-acetylpiperidin-3-yl)amino)-5-(trifluoromethyl)pyrimidin-4-yl)amino)bicyclo[2.2.1]hept-5-ene-2-carboxamide]
